Test results as given in ChEMBL document CHEMBL1125093, “Structure-activity relationships of 8-cycloalkyl-1,3-dipropylxanthines as antagonists of adenosine receptors” (J Med Chem, 1990).

Experiments:
[1] = molecular target: Adenosine receptor A1 (Rattus norvegicus) (UniProt P25099); assay: Antagonist activity against adenosine A1 receptor in rat adipocytes
[2] = molecular target: Adenosine receptor A2 (Homo sapiens); assay: Antagonistic activity against adenosine A2 receptor in human platelets

Structure (SMILES)	Ki [1]	Ki [2]
CCCNC(=O)C1CCC(c2nc3c([nH]2)c(=O)n(CCC)c(=O)n3CCC)CC1 (centres undefined)	85 nM	> 3000 nM
CCCn1c(=O)c2nc(NC3CCC3)[nH]c2n(CCC)c1=O	2.6 nM	120 nM
CCCn1c(=O)c2nc(C3CCCC(NC(C)=O)C3)[nH]c2n(CCC)c1=O (centres undefined)	41 nM	1000 nM
CCCn1c(=O)c2nc(N3CCCC3)[nH]c2n(CCC)c1=O	76 nM	–
CCCn1c(=O)c2nc(NC3CCCC3)[nH]c2n(CCC)c1=O	8 nM	130 nM
CCCn1c(=O)c2nc(N3CCCCC3)[nH]c2n(CCC)c1=O	22 nM	490 nM
CCCn1c(=O)c2nc(C3CCCC(N)C3)[nH]c2n(CCC)c1=O (centres undefined)	50 nM	> 10000 nM
CCCn1c(=O)c2nc(C3CC3C)[nH]c2n(CCC)c1=O (centres undefined)	11 nM	> 10000 nM
CCCn1c(=O)c2nc(NC3CCCCC3)[nH]c2n(CCC)c1=O	14 nM	680 nM
CCCn1c(=O)c2nc(C3CCC(C(=O)O)CC3)[nH]c2n(CCC)c1=O (stereo in doubt; 1)	430 nM	> 10000 nM
CCCn1c(=O)c2nc(C3CCCCC3C(=O)O)[nH]c2n(CCC)c1=O (stereo in doubt; 4)	> 3000 nM	> 3000 nM
CCCn1c(=O)c2[nH]c(C3CCC(N)CC3)nc2n(CCC)c1=O (stereo in doubt; 6)	90 nM	–
CCCn1c(=O)c2nc(C3CCC(NC(C)=O)CC3)[nH]c2n(CCC)c1=O (stereo in doubt; 10)	70 nM	1000 nM
CCCn1c(=O)c2nc(C3CCC(C(=O)N(C)CCN(C)C)CC3)[nH]c2n(CCC)c1=O (stereo in doubt; 15)	85 nM	450 nM
CCCn1c(=O)c2nc(C3CCCC3C(=O)O)[nH]c2n(CCC)c1=O (stereo in doubt; 17)	140 nM	> 10000 nM
CCCn1c(=O)c2nc(C3CCCC3C(=O)N(C)CCN(C)C)[nH]c2n(CCC)c1=O (stereo in doubt; 20)	53 nM	> 10000 nM

Continued, values first:

Ki [1]	Ki [2]	Structure (SMILES)
8 nM	–	CCCn1c(=O)c2nc([C@H]3CC[C@H](CNC(C)=O)CC3)[nH]c2n(CCC)c1=O
69 nM	> 10000 nM	CCCn1c(=O)c2nc(CC3CCCC3)[nH]c2n(CCC)c1=O
130 nM	560 nM	CCCn1c(=O)c2nc(C3CCC(C(=O)OC)CC3)[nH]c2n(CCC)c1=O (centres undefined)
> 10000 nM	> 10000 nM	CCCn1c(=O)c2nc(C3=C(C(=O)O)CCC3)[nH]c2n(CCC)c1=O
82 nM	–	CCCn1c(=O)c2[nH]c(C34CC5CC(CC(C5)C3)C4)nc2n(CCC)c1=O
20 nM	–	CCCn1c(=O)c2nc(C3CCC(CN)CC3)[nH]c2n(CCC)c1=O (centres undefined)
660 nM	> 10000 nM	CCCn1c(=O)c2nc(C3CCC3C(=O)O)[nH]c2n(CCC)c1=O (centres undefined)
59 nM	1500 nM	CCCn1c(=O)c2nc(C3CCC(C(=O)O)CC3)[nH]c2n(CCC)c1=O (stereo in doubt; 2)
> 10000 nM	> 10000 nM	CCCn1c(=O)c2nc(C3CCCCC3C(=O)O)[nH]c2n(CCC)c1=O (stereo in doubt; 3)
160 nM	–	CCCn1c(=O)c2[nH]c(C3CCC(N)CC3)nc2n(CCC)c1=O (stereo in doubt; 7)
12 nM	> 10000 nM	CCCn1c(=O)c2nc(C3CCC(NC(C)=O)CC3)[nH]c2n(CCC)c1=O (stereo in doubt; 9)
17 nM	260 nM	CCCn1c(=O)c2nc(C3CCC(C(=O)N(C)CCN(C)C)CC3)[nH]c2n(CCC)c1=O (stereo in doubt; 14)
> 3000 nM	> 3000 nM	CCCn1c(=O)c2nc(C3CCCC3C(=O)N(C)CCN(C)C)[nH]c2n(CCC)c1=O (stereo in doubt; 19)
100 nM	> 10000 nM	CCCn1c(=O)c2nc(C3CCCC3C(=O)O)[nH]c2n(CCC)c1=O (trans isomer)
